Values quoted from earlier work, collected in patent US10391176B2, “Composition, its preparation and method of use in treating skin disorders” (priority 2016, dated 2019).

In the case of `COc1cc(C(=O)NS(=O)(=O)c2ccccc2C)ccc1Cc1cn(C)c2ccc(NC(=O)OC3CCCC3)cc12` [Zafirlukast, 4-(5-cyclopentyloxy-carbonylamino-1-methyl-indol-3-ylmethyl)-3-methoxy-N-o-tolylsulfonylbenzamide], the solubility in acetone (acetone) is listed as “freely soluble”, the solubility in dimethylsulfoxide (dimethylsulfoxide) is listed as “freely soluble” and the solubility in methanol (methanol) is listed as “slightly soluble”. The solubility in tetrahydrofuran (tetrahydrofuran) was “freely soluble” and the solubility in water (water) was “practically insoluble”.
